Test results published in US9493444B2 (Merck Patent GmbH, priority 2012, dated 2016).

System: Wnt pathway (TCF-dependent transcription in HEK293 luciferase reporter cell line with ER-DSH construct)
Assay: Cellular assay for Wnt pathway activity (luciferase reporter)
Format: cell-based
Details: Homo sapiens; Wnt pathway inhibition, HEK293 luciferase reporter cells (ER-DSH, TCF promoter), 24 hours incubation, estrogen-induced
How it was run: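 Luminescent luciferase read-out after 24 h compound exposure at 1 nM to 30 μM, with TCF-driven transcription switched on by estrogen addition. IC50 values come from curve fits of data normalized against the vehicle-only control.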

SMILES | IC50 [nM]
CC(=O)Nc1cccc(-c2ccc(Oc3cncc(N(C)CCN(C)C(C)=O)n3)cc2)n1 [Compound 171, N-[2-({6-[4-(6-Acetylamino-pyridin-2-yl)-phenoxy]-pyrazin-2-yl}-methyl-amino)-ethyl]-N-methyl-acetamide] | < 200
CCN(CCNc1cncc(Oc2ccc(OC)cc2)n1)C(C)=O [Compound 71, N-Ethyl-N-{2-[6-(4-methoxy-phenoxy)-pyrazin-2-ylamino]-ethyl}-acetamide] | 200 to 1000
CC(=O)N(C)CCN(C)c1cncc(Oc2ccc(-c3cccc(N4CCN(C)CC4)n3)cc2)n1 [Compound 12] | < 200
CC(=O)N(C)CCN(C)c1cncc(Oc2ccc(-c3ccc(Cl)cc3)c(F)c2F)n1 [Compound 249, N-(2-{[6-(4′-Chloro-2,3-difluoro-biphenyl-4-yloxy)-pyrazin-2-yl]-methyl-amino}-ethyl)-N-methyl-acetamide] | 200 to 1000
CC(=O)N(C)CCN(C)c1cncc(Oc2ccc(Cc3ncc(C(F)(F)F)cc3Cl)cc2)n1 [Compound 159, N-[2-({6-[4-(3-Chloro-5-trifluoro-methyl-pyridin-2-ylmethyl)-phenoxy]-pyrazin-2-yl}-methyl-amino)-ethyl]-N-methyl-acetamide] | 200 to 1000
CC(=O)N(C)CCNc1cncc(Oc2ccc(-c3ccc(C#N)nc3)cc2)n1 [Compound 276, N-(2-{6-[4-(6-Cyano-pyridin-3-yl)-phenoxy]-pyrazin-2-ylamino}-ethyl)-N-methyl-acetamide] | 200 to 1000
Cc1ccc(-c2ccc(Oc3cncc(NCCC(N)=O)n3)cc2)nc1 [Compound 298, 3-{6-[4-(5-Methyl-pyridin-2-yl)-phenoxy]-pyrazin-2-ylamino}-propionamide] | 200 to 1000
CC(=O)N(C)CCN(C)c1cncc(Oc2ccc(-c3cnn(C)c3)cc2)n1 [Compound 313, N-Methyl-N-[2-(methyl-{6-[4-(1-methyl-1H-pyrazol-4-yl)-phenoxy]-pyrazin-2-yl}-amino)-ethyl]-acetamide] | < 200
CNC(=O)CCCN(C)c1cncc(Oc2ccc(F)cc2)n1 [Compound 189, 4-{[6-(4-Fluoro-phenoxy)-pyrazin-2-yl]-methyl-amino}-N-methyl-butyramide] | 1000 to 10000
Cc1ccc(-c2ccc(Oc3cncc(NCCN4CCCC4=O)n3)cc2)nc1 [Compound 196, 1-(2-{6-[4-(5-Methyl-pyridin-2-yl)-phenoxy]-pyrazin-2-ylamino}-ethyl)-pyrrolidin-2-one] | < 200
CC(=O)N(C)CCNc1cncc(Cc2ccccc2)n1 [Compound 319, N-[2-(6-Benzyl-pyrazin-2-ylamino)-ethyl]-N-methyl-acetamide] | 200 to 1000
CC(=O)N(C)CCN(C)c1cncc(Oc2ccc(O)cc2)n1 [Compound 56, N-(2-{[6-(4-Hydroxy-phenoxy)-pyrazin-2-yl]-methyl-amino}-ethyl)-N-methyl-acetamide] | 200 to 1000
CC(=O)N(C)CCCc1cncc(Oc2ccc(-c3cnc(N)cn3)cc2)n1 [Compound 214, N-(3-{6-[4-(5-Amino-pyrazin-2-yl)-phenoxy]-pyrazin-2-yl}-propyl)-N-methyl-acetamide] | 200 to 1000
C#CCOC(=O)Nc1ccc(-c2ccc(Oc3cncc(N(C)CCN(C)C(C)=O)n3)cc2)nc1 [Compound 244, {6-[4-(6-{[2-(Acetyl-methyl-amino)-ethyl]-methyl-amino}-pyrazin-2-yloxy)-phenyl]-pyridin-3-yl}-carbamic acid prop-2-ynyl ester] | < 200
CC(=O)N(C)CCN(C)c1cncc(Oc2ccc(C#N)cc2)n1 [Compound 122, N-(2-{[6-(4-Cyano-phenoxy)-pyrazin-2-yl]-methyl-amino}-ethyl)-N-methyl-acetamide] | < 200
CC(=O)N(C)CCN(C)c1cncc(Oc2ccc(-c3ccc(CCNC(=O)CCCCCNC(=O)CCCCC4SCC5NC(=O)NC54)cc3)cc2)n1 (centres unmarked) [Compound 271, 6-[5-(2-Oxo-hexahydro-thieno[3,4-d]imidazol-6-yl)-pentanoyl-amino]-hexanoic acid {2-[4′-(6-{[2-(acetyl-methyl-amino)-ethyl]-methyl-amino}-pyrazin-2-yloxy)-biphenyl-4-yl]-ethyl}-amide] | < 200
CC(=O)N(CCN(c1cncc(Oc2ccc(F)cc2)n1)C(C)C)C(C)C [Compound 168, N-(2-{[6-(4-Fluoro-phenoxy)pyrazin-2-yl]-isopropyl-amino}-ethyl)-N-isopropyl-acetamide] | 200 to 1000
CC(=O)N(C)CCN(C)c1cncc(Sc2ccc(F)cc2)n1 [Compound 129, N-(2-{[6-(4-Fluoro-phenyl-sulfanyl)-pyrazin-2-yl]-methyl-amino}-ethyl)-N-methyl-acetamide] | 200 to 1000
Cc1ccc(-c2ccc(Oc3cncc(NCCN4CCCCC4=O)n3)cc2)nc1 [Compound 197, 1-(2-{6-[4-(5-Methyl-pyridin-2-yl)-phenoxy]-pyrazin-2-ylamino}-ethyl)-piperidin-2-one] | < 200
CC(=O)Nc1cccc(-c2ccc(Oc3cncc(NCCN(C)C(C)=O)n3)cc2)n1 [Compound 235, N-(2-{6-[4-(6-Acetylamino-pyridin-2-yl)-phenoxy]-pyrazin-2-ylamino}-ethyl)-N-methyl-acetamide] | 200 to 1000
CC(=O)N(C)CCN(C)c1cncc(Oc2ccc(-c3ccc(N=[N+]=[N-])cn3)cc2)n1 [Compound 273, N-[2-({6-[4-(5-Azido-pyridin-2-yl)-phenoxy]-pyrazin-2-yl}-methyl-amino)-ethyl]-N-methyl-acetamide] | < 200
CN(CCC1(O)CCCC1)c1cncc(Oc2ccc(F)cc2)n1 [Compound 283, 1-(2-{[6-(4-Fluoro-phenoxy)-pyrazin-2-yl]-methyl-amino}-ethyl)-cyclopentanol] | 200 to 1000
CCc1ccnc(-c2ccc(Oc3cncc(N(C)CCN(C)C(C)=O)n3)cc2)c1 [Compound 167, N-[2-({6-[4-(4-Ethyl-pyridin-2-yl)-phenoxy]-pyrazin-2-yl}-methyl-amino)-ethyl]-N-methyl-acetamide] | 200 to 1000
